In PubChem BioAssay (NCI):
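Following 48 hours of exposure in 96-well plates, responses at five concentrations were used to interpolate endpoints linearly. The concentration for 50% growth inhibition is given as GI50. At the TGI there is no net growth.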

How the values were obtained:
Assay in all cases: inhibition of tumour cell growth, NCI panel, 48 h
786-0 renal = test system: 786-0 renal
A498 renal = test system: A498 renal
A549 NSCLC = test system: A549 NSCLC
ACHN renal = test system: ACHN renal
BT-549 breast = test system: BT-549 breast
CAKI-1 renal = test system: CAKI-1 renal
CCRF-CEM leukemia = test system: CCRF-CEM leukemia
COLO 205 colon = test system: COLO 205 colon
DU-145 prostate = test system: DU-145 prostate
EKVX NSCLC = test system: EKVX NSCLC
HCC-2998 colon = test system: HCC-2998 colon
HCT-116 colon = test system: HCT-116 colon
HCT-15 colon = test system: HCT-15 colon
HOP-62 NSCLC = test system: HOP-62 NSCLC
HOP-92 NSCLC = test system: HOP-92 NSCLC
HS 578T breast = test system: HS 578T breast
HT29 colon = test system: HT29 colon
IGROV1 ovarian = test system: IGROV1 ovarian
K-562 leukemia = test system: K-562 leukemia
KM12 colon = test system: KM12 colon
LOX IMVI melanoma = test system: LOX IMVI melanoma
MALME-3M melanoma = test system: MALME-3M melanoma
MCF7 breast = test system: MCF7 breast
MDA-MB-231 breast = test system: MDA-MB-231 breast
MDA-MB-435 = test system: MDA-MB-435
MOLT-4 leukemia = test system: MOLT-4 leukemia
NCI-H226 lung = test system: NCI-H226 lung
NCI-H23 lung = test system: NCI-H23 lung
NCI-H460 lung = test system: NCI-H460 lung
NCI-H522 lung = test system: NCI-H522 lung
NCI/ADR-RES ovarian = test system: NCI/ADR-RES ovarian
OVCAR-3 ovarian = test system: OVCAR-3 ovarian
OVCAR-4 ovarian = test system: OVCAR-4 ovarian
OVCAR-5 ovarian = test system: OVCAR-5 ovarian
OVCAR-8 ovarian = test system: OVCAR-8 ovarian
PC-3 prostate = test system: PC-3 prostate
RPMI-8226 leukemia = test system: RPMI-8226 leukemia
RXF 393 renal = test system: RXF 393 renal
SF-268 CNS = test system: SF-268 CNS
SF-295 CNS = test system: SF-295 CNS
SF-539 CNS = test system: SF-539 CNS
SK-MEL-2 melanoma = test system: SK-MEL-2 melanoma
SK-MEL-28 melanoma = test system: SK-MEL-28 melanoma
SK-MEL-5 melanoma = test system: SK-MEL-5 melanoma
SK-OV-3 ovarian = test system: SK-OV-3 ovarian
SN12C renal = test system: SN12C renal
SNB-19 CNS = test system: SNB-19 CNS
SW-620 colon = test system: SW-620 colon
T-47D breast = test system: T-47D breast
TK-10 renal = test system: TK-10 renal
U251 CNS = test system: U251 CNS
UACC-257 melanoma = test system: UACC-257 melanoma
UACC-62 melanoma = test system: UACC-62 melanoma
UO-31 renal = test system: UO-31 renal

Question: What does the source list for `O=C(CN(/C=C/C(=O)C(F)(F)F)c1ccccc1)c1ccc(Cl)c(Cl)c1`?
Answer: GI50 (786-0 renal): 17.6 µM; TGI (786-0 renal): 37.5 µM; GI50 (A498 renal): 14.2 µM; TGI (A498 renal): 27.4 µM; GI50 (A549 NSCLC): 13.4 µM; TGI (A549 NSCLC): 29.8 µM; GI50 (ACHN renal): 14.7 µM; TGI (ACHN renal): 27.9 µM; GI50 (BT-549 breast): 10.9 µM; TGI (BT-549 breast): 29.5 µM; GI50 (CAKI-1 renal): 8.44 µM; TGI (CAKI-1 renal): 23.4 µM; GI50 (CCRF-CEM leukemia): 11.2 µM; TGI (CCRF-CEM leukemia): 29.2 µM; GI50 (COLO 205 colon): 19.5 µM; TGI (COLO 205 colon): 42.4 µM; GI50 (DU-145 prostate): 13 µM; TGI (DU-145 prostate): 30.6 µM; GI50 (EKVX NSCLC): 13.5 µM; TGI (EKVX NSCLC): 28.8 µM; GI50 (HCC-2998 colon): 15.8 µM; TGI (HCC-2998 colon): 29.9 µM; GI50 (HCT-116 colon): 12.7 µM; TGI (HCT-116 colon): > 100 µM; GI50 (HCT-15 colon): 14.6 µM; TGI (HCT-15 colon): 28.2 µM; GI50 (HOP-62 NSCLC): 28.3 µM; TGI (HOP-62 NSCLC): > 100 µM; GI50 (HOP-92 NSCLC): 17.7 µM; TGI (HOP-92 NSCLC): 38.5 µM; GI50 (HS 578T breast): 14.8 µM; TGI (HS 578T breast): 49.6 µM; GI50 (HT29 colon): 34.1 µM; TGI (HT29 colon): > 100 µM; GI50 (IGROV1 ovarian): 5.76 µM; TGI (IGROV1 ovarian): 19.7 µM; GI50 (K-562 leukemia): 15.7 µM; TGI (K-562 leukemia): 37.6 µM; GI50 (KM12 colon): 12.3 µM; TGI (KM12 colon): 28.4 µM; GI50 (LOX IMVI melanoma): 16 µM; TGI (LOX IMVI melanoma): 31.8 µM; GI50 (MALME-3M melanoma): 12.8 µM; TGI (MALME-3M melanoma): 32.1 µM; GI50 (MCF7 breast): 5.2 µM; TGI (MCF7 breast): 55.3 µM; GI50 (MDA-MB-231 breast): 12.8 µM; TGI (MDA-MB-231 breast): 26.3 µM; GI50 (MDA-MB-435): 14.9 µM; TGI (MDA-MB-435): 31.9 µM; GI50 (MOLT-4 leukemia): 12.7 µM; TGI (MOLT-4 leukemia): 32.4 µM; GI50 (NCI-H226 lung): 13.7 µM; TGI (NCI-H226 lung): 27.9 µM; GI50 (NCI-H23 lung): 13.6 µM; TGI (NCI-H23 lung): 26.7 µM; GI50 (NCI-H460 lung): 17.5 µM; TGI (NCI-H460 lung): 44.9 µM; GI50 (NCI-H522 lung): 11.1 µM; TGI (NCI-H522 lung): 25 µM; GI50 (NCI/ADR-RES ovarian): 15.2 µM; TGI (NCI/ADR-RES ovarian): 31.3 µM; GI50 (OVCAR-3 ovarian): 14.1 µM; TGI (OVCAR-3 ovarian): 30 µM; GI50 (OVCAR-4 ovarian): 20.3 µM; TGI (OVCAR-4 ovarian): 45.6 µM; GI50 (OVCAR-5 ovarian): 17 µM; TGI (OVCAR-5 ovarian): 33.9 µM; GI50 (OVCAR-8 ovarian): 16.6 µM; TGI (OVCAR-8 ovarian): 33 µM; GI50 (PC-3 prostate): 13.3 µM; TGI (PC-3 prostate): 26.9 µM; GI50 (RPMI-8226 leukemia): 13.9 µM; TGI (RPMI-8226 leukemia): 40.2 µM; GI50 (RXF 393 renal): 17.1 µM; TGI (RXF 393 renal): 52.5 µM; GI50 (SF-268 CNS): 18.4 µM; TGI (SF-268 CNS): 40.7 µM; GI50 (SF-295 CNS): 12.4 µM; TGI (SF-295 CNS): 27.5 µM; GI50 (SF-539 CNS): 18 µM; TGI (SF-539 CNS): 39.8 µM; GI50 (SK-MEL-2 melanoma): 12.4 µM; TGI (SK-MEL-2 melanoma): 26.6 µM; GI50 (SK-MEL-28 melanoma): 23.9 µM; TGI (SK-MEL-28 melanoma): 56.2 µM; GI50 (SK-MEL-5 melanoma): 13.2 µM; TGI (SK-MEL-5 melanoma): 26.3 µM; GI50 (SK-OV-3 ovarian): 21.1 µM; TGI (SK-OV-3 ovarian): 40.1 µM; GI50 (SN12C renal): 15.1 µM; TGI (SN12C renal): 28.3 µM; GI50 (SNB-19 CNS): 20.3 µM; TGI (SNB-19 CNS): 46.4 µM; GI50 (SW-620 colon): 14.6 µM; TGI (SW-620 colon): 30.1 µM; GI50 (T-47D breast): 15.8 µM; TGI (T-47D breast): 55.7 µM; GI50 (TK-10 renal): 15.9 µM; TGI (TK-10 renal): 32.8 µM; GI50 (U251 CNS): 14.8 µM; TGI (U251 CNS): 28.1 µM; GI50 (UACC-257 melanoma): 13.4 µM; TGI (UACC-257 melanoma): 27.4 µM; GI50 (UACC-62 melanoma): 9.43 µM; TGI (UACC-62 melanoma): 21.3 µM; GI50 (UO-31 renal): 11.4 µM; TGI (UO-31 renal): 24.3 µM
